How the values were obtained:
[1] = Behaviour of PP-G-PGn lipids in water (additional properties); assay type: physicochemical; settings: for behaviour when heated in water: heated above 40° C. in water; for stability of the lamellar phases: low temperatures; for time until transition from the isotropic to the anisotropic phase is recognizable: room temperature; for behaviour when the temperature falls: temperature below 40° C.
Text: As the number of glycerol molecules increases, the number of free hydroxyl groups and thus also the polarity increases. […] Whereas the transition from the isotropic to the anisotropic phase at room temperature is recognizable after a few minutes with PP-G-PG2, it takes several hours for PP-G-PG3. The differences in polarity are also evident from the different retention factors (Rf) in the thin-layer chromatogram on silica gel.

[2] = in vivo
Method: In an animal experiment, liposomes were used which consisted of 40 mol % cholesterol, 10 mol % phosphatidylglycerol and 50% dipalmitoyl lecithin.
Liposomes of the same composition were prepared, in which the phosphatidylglycerol was replaced by a phosphatidylglycerol G2 of the invention. […] This linear relation was observed irrespective of the size of the liposomes. The same linear reduction in serum liposome concentration was found with 50 nm liposomes and with 150 nm liposomes. The linear reduction in blood liposome concentration was also observed for different starting concentrations.

Substance	solution formed in water ([1]; proportion of 5% in water)	half-life in serum [2] [h]	persistence characteristic (decrease of liposomes in serum with time) [2]	behaviour when heated in water [1]	stability of the lamellar phases [1]	time until transition from the isotropic to the anisotropic phase is recognizable [1]	behaviour when the temperature falls [1]
1.2-dipalmitoyl-sn-glycero-3-phospho-G1-G2-G3-G4 [PP-G-PG4]	clear isotropic solution	–	–	–	–	–	–
phosphatidylglycerol	–	4	a rapid decrease to start with, followed by a slower decrease	–	–	–	–
1.2-dipalmitoyl-sn-glycero-3-phospho-G1-G2 [PP-G-PG2]	–	–	–	dissolve when heated above 40 °C in water and form superstructures	remain stable even at low temperatures (down to 4° C.)	a few minutes	lamellar structures with differently pronounced hystereses are formed
1.2-dipalmitoyl-sn-glycero-3-phospho-G1-G2-G3 [PP-G-PG3]	–	–	–	dissolve when heated above 40 °C in water and form superstructures	remain stable even at low temperatures (down to 4° C.)	several hours	lamellar structures with differently pronounced hystereses are formed

Reference: patent US8076520B2, “Phosphatidyl oligoglycerols” (Max-Planck-Gesellschaft zur Forderung der Wissenschaften …, priority 1996, dated 2011)
